Measurements reported in US20240158448A1, “MULTIVALENT NANO-'SELF' PEPTIDES AND USES THEREOF” (THE TRUSTEES OF THE UNIVERSITY OF PENNSYLVANIA, priority 2021, published 2024).
“Also recorded” adds a separate entry of the source. Non-standard residues stand in square brackets, D forms with d. Primed or numbered codes have the meaning given here. No end group written: not given here. PEG5′ = linker of 5 PEG units between residues

Key:
[1] = system: human macrophages (opsonized K562 cancer cells); experiment: Phagocytosis of opsonized K562 erythroleukemia cells by human macrophages; type: cell-based
Experimental: In vitro phagocytosis assay. Fresh human RBCs were washed twice with 50 mM EDTA (Thermo Fischer) in PBS (Gibco) then twice with 5% FBS in PBS. RBCs were opsonized with 20 μg/mL rabbit anti-human RBC antibody (Rockland) in 5% FBS for 1 hour at RT with shaking. For CD47 blocked RBCs, 5 μg/mL of mouse anti-human CD47 (B6H12; BD Biosciences) were added. Thereafter, RBCs were washed with PBS three times and stained with PKH26 dye (1:800 dilution in PBS; Sigma) for 1 hour at RT with shaking in the dark. RBCs were washed and resuspended in PBS.
THP-1 monocytes were PMA differentiated in RPMI for 48 hours. Macrophages were then washed with RPMI media three times. For SIRPα blocked THP-1 macrophages, 20 nM, 1 μM or 50 μM of the nano—Self peptides were incubated with the THP-1 macrophages for 1 hour at 37 ° C., 5% CO2 and 95% humidity. Those THP-Is were then washed with RPMI three times.
CO2 and 95% humidity. Macrophages were then washed with RPMI three times. Adherent and uninternalized RBCs were lysed with water for 30 seconds followed by immediate replacement with RPMI media. In order to distinguish remaining adherent RBCs from internalized RBCs, opsonized RBCs were stained with AlexaFluor 647 donkey anti-rabbit (binds to rabbit polyclonal opsonin on RBC; Invitrogen) IgG (1:1000) while unopsonized, CD47 blocked RBCs were stained with AlexaFluor 647 donkey anti-mouse (binds to mouse monoclonal anti-CD47 on RBCs; Invitrogen) IgG (1:1000) for 30 minutes. After washing, macrophages were fixed with 4% formaldehyde for 15 minutes at RT, washed with PBS, stained with 1 μg/mL Hoechst 33342, and then washed with PBS again. Fluorescence imaging was performed as described elsewhere herein and quantification was done using ImageJ. At least 200 cells were analyzed and experiments were repeated at least three times.
The anti-RBC successfully opsonized and triggered phagocytosis of K562 cells by macrophages (FIGS. 2A, 2F and 2E). […] Interaction of the nS peptides with K562 cells is likely minimal due to the relative lack of SIRPα expression. […] For both opsonized RBCs and opsonized K562s (FIGS. 2D, 2F), the hyperphagocytosis that is achieved with soluble F- and V-nS peptides matches the recently measured increases for disruption of both (i) the trans interactions between CD47 on a target and macrophage SIRPα and also, importantly, (ii) the cis interactions between CD47 and SIRPα on the same macrophage (FIG. 2G-left). Expression profiling of macrophages confirms these cells generally express CD47 at roughly similar levels to other cell types (FIG. 15). […] A preliminary conclusion is that nS-FF and the other substituted peptides, which were designed to bind SIRPα, inhibit both the cis and trans interactions between SIRPα and CD47 ([…]).

SIRPα = target: T1, SIRPα (Homo sapiens, UniProt P78324); experiment: CD47-Fc Inhibition Assay on THP-1 macrophages; type: binding; conditions: 1 μM or 50 μM peptide, 2 μg/mL CD47-Fc, anti-Fc fluorescence
T1 construct: THP-1 monocytes were PMA differentiated in RPMI for 48 h; endogenous in cells; host or cells: PMA-differentiated THP-1 macrophages
Experimental: CD47-Fc Inhibition Assay. THP-1 monocytes were PMA differentiated in RPMI for 48 h. The macrophages were washed with RPMI media and then incubated with 1 μM or 50 μM of nano- Self peptides for 1 h at 37° C., 5% CO2, and 95% humidity. After washing, the macrophages were incubated with Human Trustain FcX Fc receptor blocking solution (Biolegend) for 10 min at RT and then incubated with 2 μg/mL CD47-Fc fusion protein (ACRO Biosystems) for 1 h at 37° C., 5% CO2, and 95% humidity. As a negative control, B6H12 was pre-mixed with CD47-Fc at 4° C. on a rotator for 1 h. The macrophages were then washed and incubated with 0.5 μg/mL goat anti-human IgG Fc DyLight 488 (Thermo Fischer) for 1 h at 37° C., 5% CO2, and 95% humidity. Finally, the macrophages were washed, fixed, Hoechst 33342 stained, and imaged as described above.
To determine whether the nS peptides bind to SIRPα, nS-FF and nS-F4 were used as soluble competitive inhibitors of saturable CD47-Fc fusion protein binding to macrophages (FIG. 20). Addition of multivalent nS peptides was followed by Fc-receptor blockade to minimize Fc-driven binding of construct. Afterwards, CD47-Fc was added and then finally anti-Fc fluorescence imaging was performed (FIG. 20, left).

[2] = system: COS-1 (SIRPα negative) cells; experiment: Confocal live staining with FAM-labeled peptides, COS-1 cells; type: binding, monkey; conditions: FAM-labeled peptide
Experimental: SIRPα staining and confocal imaging. THP-1 monocytes were PMA-differentiated in RPMI 1640 for 24 hours. J774A.1, A549, and COS-1 cells were plated for 24 hours in media, respectively. Cells were washed with respective media prior to addition of fluorescent peptides. The peptides were left to incubate for 1 hour at 37 ° C., 5% CO2 and 95% humidity. For fixed cell staining, cells were incubated with 4% formaldehyde (Pierce) for 15 minutes prior to the addition of fluorescent peptides whereas for live cell staining, fixation was done after incubation with the FAM-labeled peptides. Nuclei were stained with 1 μg/mL Hoechst 33342 (Invitrogen). Cells were the washed PBS three times before analysis. Fluorescence imaging of fixed cells was performed using an Olympus IX71 with a digital EMCCD camera (Cascade 512B) and a 40×/0.6 NA objective. […] Quantification was done with ImageJ (NIH).
In order to visualize the uneven binding of the peptides to the surface of the macrophages, a live staining experiment of THP-1, J774A.1, and A549 cells, which all express SIRPα at different levels, was performed with FAM-labeled nS-wt and nS-X and analyzed by confocal microscopy (FIG. 11). […] Fluorescence of nS-X was consistently lower on THP-1 and J774A.1 macrophages relative to nS-wt. […]

Row | Substance | increase of phagocytosis relative to opsonized and CD47 blocked K562 cells ([1]; saturating peptide) | macrophages engulfing opsonized K562 cells at saturation ([1]; saturation) | level of inhibition of CD47-Fc binding (SIRPα) | binding to COS-1 cells [2]
1 | (VTELFREG-PEG5)2-K (VTELFREG[PEG5′]K[PEG5′]GERFLETV; not fully specified; also: bivalent lysine core) [nS-FF, bivalent nS-F linked through PEG5 linkers to a C-terminal Lys] | nearly doubled; also recorded: about two-fold | ~40% | as inhibitory as anti-CD47 | 
2 | VTELTREG [nS-wt, 8-amino acid wild type nano-Self peptide from the CD47 loop, C-terminal amide] |  |  |  | primarily non-specific
